Test results from patent US9675664B2, “Compositions, formulations and methods of treating preeclampsia-type disorders of pregnancy” (Women & Infants' Hospital of Rhode Island, priority 2009, dated 2017).

How the values were obtained:
[1] = endogenous TTR; cited from earlier work
[2] = tested on: endothelial cells (EC) and trophoblasts (HTR) crosstalk; assay: In vitro endothelial cell-trophoblast co-culture tube (vacuole) formation assay on matrigel with pregnancy serum; type: cell-based, human; conditions: for rescue of mild PE serum induced disrupted EC-HTR8 crosstalk (tube assay): mild preeclampsia serum (mPE), TTR preincubated at 0.1, 1.0, 10 μg/ml of serum; for rescue of severe PE serum induced disrupted EC-HTR8 crosstalk (tube assay): severe preeclampsia serum (sPE), TTR preincubated at 0.1, 1.0, 10 microgram/ml of serum
Excerpt: The in vitro assay described in this example is based on the premise that during normal pregnancy, fetal derived trophoblasts called the “invasive cytotrophoblasts” invade the maternal decidua and the endothelial cell lined spiral arteries. This phenomenon can be restructured using serum from pregnancy as physiological milieu and culturing human umbilical vein endothelial cells and trophoblasts on basement membrane such as matrigel. […] For additional information see U.S. Provisional Patent Application No. 61/063,491 filed Feb. 4, 2008 and/or Kalkunte, In Vitro and In Vivo Evidence for Lack of Vascular Remodeling by Third Trimester Trophoblasts, Placenta 29: 871-78 (2008).
Recombinantly produced TTR (detected by SDS-PAGE electrophoresis and purity 96%) was obtained from AbD Serotec, Raleigh, N.C. 27604, USA. Recombinant TTR obtained in lyophilized form was reconstituted with sterile phosphate-saline buffer to obtain a final concentration of 1 mg/ml and maintained at >pH 7.0. The solutions were stored as aliquots frozen at −80° C. until use. Thirty minutes prior to experimentation, the aliquots of TTR were thawed, then mixed with serum and incubated at 37° C. for 30 minutes.
The in vitro method further includes incubating a co-culture of human endothelial cells and human trophoblast cells in the presence of serum or plasma obtained from a pregnant person for a period of time sufficient to permit vacuolization (also referred to as “capillary formation” and “tube formation” in FIGS. 2-4), and after incubation determining whether substantial vacuolization in the co-culture has occurred by quantification as described in Example 3.
During pregnancy, angiogenesis is characterized by spiral artery remodeling for which trophoblast invasion into these maternal blood vessels is a prerequisite. The data of FIG. 2 show an in vitro model of interaction of trophoblasts and endothelial cells that mimics spiral artery remodeling. Specifically, 2.5×10^4 endothelial cells labeled red and 2.5×10^4 trophoblasts, labeled green, were co-cultured on matrigel coated plates and stimulated with either NPS (normal pregnancy serum) or severe PES (Preeclampsia Serum) as described above. In the absence of exogenous TTR, serum from severe (FIG. 2 Panel B #5 and C #9) preeclampsia patients blocks the “cross-talk” between endothelial-trophoblast cells, causing obvious differences in architecture as compared to the same cells stimulated under the same conditions with NPS serum (sample L1045; FIG. 2 Panel A, #1).
Briefly, 2.5×10^4 endothelial cells labeled red and 2.5×10^4 trophoblasts, each from different trimesters labeled green (FIG. 2), were co-cultured on matrigel coated plates and stimulated with either NPS or mild PES as described above. […] The number of vacuoles (or tubes) formed per sample were counted and represented in the graph (FIG. 4, mPE with and without TTR). […] Statistical significance of experimental differences was assessed using Student's paired t-test. […]
The in vitro studies conducted in Example 2 were quantified by counting the number of tube like structures termed as “vacuole” under fluorescence microscope (Nikon Eclipse TS 100 coupled with CCD camera) in four different fields at 4× magnification. […]

Pregnant IL-10−/− mice = assay: In vivo rescue of PE serum induced preeclampsia-like symptoms in pregnant IL-10-/- mice
Procedure: Recombinantly produced TTR (detected by SDS-PAGE electrophoresis and purity 96%) was obtained from AbD Serotec, Raleigh, N.C. 27604, USA. Recombinant TTR obtained in lyophilized form was reconstituted with sterile phosphate-saline buffer to obtain a final concentration of 1 mg/ml and maintained at >pH 7.0. The solutions were stored as aliquots and frozen at −80° C. until use. Thirty minutes prior to experimentation, the aliquots of TTR were thawed, then mixed with 100 μl of PE serum samples. Pregnant IL-10^−/− mice (C57BL/6, Jackson Labs, USA) were then injected intraperitoneally on gestational day (g.d.) 10 at a TTR dose of 20 microgram/mouse. The gestational period in mice is 20 days. Similarly, 100 μl PE serum or normal pregnancy serum was administered to different set of animals as control. On g.d.16/17, urine and serum samples were collected from each mouse, and blood pressure measurements were taken. Blood pressure was taken by an established tail-cuff method which utilizes a programmed sphygmomanometer. The animals adapted for 5 min using a warming test chamber (IITC Life Science Inc, Woodland Hills, Calif.) at controlled temperature (35° C.). The measurements were carried out on day 17 of pregnancy using DigiMed blood pressure analyzer, (MicroMed, Louisville, Ky., 40222-4683). Each measurement of blood pressure is an average of three readings at 1 min intervals from a number of animals (˜3-5 each). Systolic blood pressure was compared among non-pregnant and pregnant mice. All animals were age matched. Data was analyzed using Digi-Med® System Integrator™ Model 400 (DMSI-400).
Total urinary albumen was measures using Albumin (mouse) ELISA kit (ALPCO Diagnostics, Salem, N.H.) and urinary creatinine was measured using Metra Creatinine Kit (Quidel Corporation, San Diego, Calif.). Protinuria as represented as a ration of urinary albumin to creatinine (expressed as μg/mg). (Baseline values seen in mice range from 100-400 μg/mg.)
On g.d. 17 the mice were euthanized, the uterine horns were extracted, photographed and pregnancy outcomes were recorded. […] 10 in IL10^−/− mice. The effects in response to only one administration of serum (100 μl) were evaluated on g.d. 17.

[3] = sPE serum 100 μl i.p. on g.d. 10 with co-administered TTR 20 microgram/mouse, evaluated g.d. 17

Row | Substance | half life [1] | rescue of mild PE serum induced disrupted EC-HTR8 crosstalk (tube assay) [2] | rescue of mild PE serum induced disrupted EC-HTR8 crosstalk (tube assay) ([2]; listed as Recombinant TTR) | effect on NPS mediated tube formation ([2]; normal pregnancy serum (NPS), TTR 0.1, 1.0, 10 microgram/ml of serum) | rescue of severe PE serum induced disrupted EC-HTR8 crosstalk (tube assay) [2] | rescue of severe PE serum induced disrupted EC-HTR8 crosstalk (tube assay) ([2]; listed as Recombinant TTR) | TTR levels in mouse serum (SELDI-TOF relative intensity) (Pregnant IL-10−/− mice; reduction induced by severe preeclampsia serum, FIG. 6) | intrauterine growth restriction (fetal weight) (Pregnant IL-10−/− mice; [3]) | systolic blood pressure (hypertension) (Pregnant IL-10−/− mice; [3]) | proteinuria (urinary albumin to creatinine ratio) (Pregnant IL-10−/− mice; sPE serum 100 μl i.p. on g.d. 10 with co-administered TTR 20 microgram/mouse, urine g.d. 16/17)
1 | transthyretin [endogenous TTR] | approximately 2 days |  |  |  |  |  |  |  |  | 
2 | transthyretin [recombinant TTR] |  | substantially rescues | rescues mPE serum induced disruption | no significant effect | substantially rescues | rescues sPE serum induced disruption | rescued | rescues sPE serum induced anomalies | rescues sPE serum induced anomalies | rescues sPE serum induced anomalies
